Values after ≈ are worked out from the molar mass of the structure shown. Active and inactive are the calls of the source. No cut-off for these calls is given here.
Assays:
[1] = Lipophilicity, logD of the compound; assay type: physicochemical; conditions: octanol/water
[2] = Solubility of the compound in PBS buffer at pH 7.4; assay type: physicochemical
[3] = Metabolic stability in CD-1 mouse liver S9 fraction assessed as half-life at 2 uM measured upto 40 mins in the presence of NADPH by HPLC-MS analysis; assay type: ADME, subcellular; conditions: s9, 40 min
[4] = biological target: T1, Free fatty acid receptor 4 (Homo sapiens) (UniProt Q5NUL3); test: Agonist activity at N-terminal FLAG tagged human FFAR4 transfected in African green monkey COS-7 cells assessed as accumulation of inositol phosphate at 10 uM incubated for 90 mins by TopCount NXT counter based analysis relative to control; assay type: cell-based
T1 sequence (whole entry): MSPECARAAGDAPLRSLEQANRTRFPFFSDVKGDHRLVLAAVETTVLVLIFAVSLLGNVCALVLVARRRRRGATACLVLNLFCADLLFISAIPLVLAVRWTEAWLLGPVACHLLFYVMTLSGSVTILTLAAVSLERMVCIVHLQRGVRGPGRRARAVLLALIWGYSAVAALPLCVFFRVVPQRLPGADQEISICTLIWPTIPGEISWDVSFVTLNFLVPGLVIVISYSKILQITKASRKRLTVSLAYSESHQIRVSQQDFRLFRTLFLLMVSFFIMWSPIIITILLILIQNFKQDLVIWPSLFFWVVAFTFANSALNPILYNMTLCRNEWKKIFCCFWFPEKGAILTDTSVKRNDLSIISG

[5] = biological target: T2, Free fatty acid receptor 4 (Homo sapiens, UniProt Q5NUL3); test: Agonist activity at N-terminal FLAG tagged human FFAR4 transfected in African green monkey COS-7 cells assessed as accumulation of inositol phosphate incubated for 90 mins by TopCount NXT counter based analysis; assay type: cell-based
T2 sequence (Q5NUL3 whole entry): T1 sequence (whole entry)

[6] = biological target: Free fatty acid receptor 1 (Homo sapiens, UniProt O14842); test: Agonist activity at N-terminal FLAG tagged human FFAR1 transfected in African green monkey COS-7 cells assessed as accumulation of inositol phosphate incubated for 90 mins by TopCount NXT counter based analysis; assay type: cell-based
Chain of Free fatty acid receptor 1 (O14842 whole entry): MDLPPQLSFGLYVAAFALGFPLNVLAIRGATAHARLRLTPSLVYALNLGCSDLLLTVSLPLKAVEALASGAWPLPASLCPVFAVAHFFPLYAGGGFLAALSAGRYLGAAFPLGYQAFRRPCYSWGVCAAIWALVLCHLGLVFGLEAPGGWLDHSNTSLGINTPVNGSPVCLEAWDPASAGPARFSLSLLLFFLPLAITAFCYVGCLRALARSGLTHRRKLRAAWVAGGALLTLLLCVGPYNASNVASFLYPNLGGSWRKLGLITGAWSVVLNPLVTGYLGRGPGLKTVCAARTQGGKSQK

[7] = tested on: Free fatty acid receptor 1 (Homo sapiens), O14842 [L262W]; test: Agonist activity at N-terminal FLAG tagged human FFAR1 L262W mutant transfected in African green monkey COS-7 cells assessed as accumulation of inositol phosphate by measuring change in efficacy incubated for 90 mins by TopCount NXT counter based analysis relative to control; assay type: cell-based
Chain of Free fatty acid receptor 1 (Homo sapiens), O14842 [L262W] (O14842 whole entry L262W): as the sequence (O14842 whole entry) above, with L262W counted along it

[8] = tested on: Free fatty acid receptor 1 (Homo sapiens), O14842 [A83F]; test: Agonist activity at N-terminal FLAG tagged human FFAR1 A83F mutant transfected in African green monkey COS-7 cells assessed as accumulation of inositol phosphate incubated for 90 mins by TopCount NXT counter based analysis; assay type: cell-based; conditions: filed as agonist
Chain of Free fatty acid receptor 1 (Homo sapiens), O14842 [A83F] (O14842 whole entry A83F): as the sequence (O14842 whole entry) above, with A83F counted along it

[9] = tested on: Free fatty acid receptor 1 (Homo sapiens), O14842 [K259A]; test: Agonist activity at N-terminal FLAG tagged human FFAR1 K259A mutant transfected in African green monkey COS-7 cells assessed as accumulation of inositol phosphate by measuring change in efficacy incubated for 90 mins by TopCount NXT counter based analysis relative to control; assay type: cell-based
Chain of Free fatty acid receptor 1 (Homo sapiens), O14842 [K259A] (O14842 whole entry K259A): as the sequence (O14842 whole entry) above, with K259A counted along it

[10] = tested on: Free fatty acid receptor 1 (Homo sapiens), O14842 [S8A]; test: Agonist activity at N-terminal FLAG tagged human FFAR1 S8A mutant transfected in African green monkey COS-7 cells assessed as accumulation of inositol phosphate by measuring decrease in efficacy incubated for 90 mins by TopCount NXT counter based analysis relative to control; assay type: cell-based
Chain of Free fatty acid receptor 1 (Homo sapiens), O14842 [S8A] (O14842 whole entry S8A): as the sequence (O14842 whole entry) above, with S8A counted along it

COS-7 [11] = test: Agonist activity at N-terminal FLAG tagged human FFAR1 E65 mutant transfected in African green monkey COS-7 cells assessed as accumulation of inositol phosphate incubated for 90 mins by TopCount NXT counter based analysis; assay type: cell-based
[12] = tested on: Free fatty acid receptor 1 (Homo sapiens), O14842 [A83F]; test: Agonist activity at N-terminal FLAG tagged human FFAR1 A83F mutant transfected in African green monkey COS-7 cells assessed as accumulation of inositol phosphate by measuring fold change in potency incubated for 90 mins by TopCount NXT counter based analysis; assay type: cell-based; conditions: filed as agonist
[13] = tested on: Free fatty acid receptor 1 (Homo sapiens), O14842 [S8A]; test: Agonist activity at N-terminal FLAG tagged human FFAR1 S8A mutant transfected in African green monkey COS-7 cells assessed as accumulation of inositol phosphate by measuring fold decrease in potency incubated for 90 mins by TopCount NXT counter based analysis; assay type: cell-based; conditions: filed as agonist
COS-7 [14] = test: Agonist activity at N-terminal FLAG tagged human FFAR1 Y12 mutant transfected in African green monkey COS-7 cells assessed as accumulation of inositol phosphate incubated for 90 mins by TopCount NXT counter based analysis; assay type: cell-based
COS-7 [15] = test: Agonist activity at N-terminal FLAG tagged human FFAR1 K259 mutant transfected in African green monkey COS-7 cells assessed as accumulation of inositol phosphate incubated for 90 mins by TopCount NXT counter based analysis; assay type: cell-based
COS-7 [16] = test: Agonist activity at N-terminal FLAG tagged human FFAR1 L262 mutant transfected in African green monkey COS-7 cells assessed as accumulation of inositol phosphate incubated for 90 mins by TopCount NXT counter based analysis; assay type: cell-based
COS-7 [17] = test: Agonist activity at N-terminal FLAG tagged human FFAR1 A66 mutant transfected in African green monkey COS-7 cells assessed as accumulation of inositol phosphate incubated for 90 mins by TopCount NXT counter based analysis; assay type: cell-based

Row | SMILES | logD [1] | solubility kinetic [2] | t1/2 [3] | Emax [4] | EC50 [5] | EC50 [6] | Emax ([4]; filed as agonist) | other results
1 | Cc1cc(OCc2nc(N)nc(NCCc3cccc4c3OC(F)(F)O4)n2)cc(N2CCCC2=O)c1 | 3.42 | 13 µM (≈ 6.48 µg/mL) | 0.8 min |  |  |  |  | 
2 | Cc1cc(OCc2nc(N)nc(NCCc3ccccc3N3CCOCC3)n2)cc(N2CCCC2=O)c1 | 2.93 | 119 µM (≈ 59.9 µg/mL) | 0.9 min | 30% | 81 nM |  |  | 
3 | Cc1cc(OCc2nc(N)nc(NC3(Cc4cccc(Cl)c4)CC3)n2)cc(N2CCCC2=O)c1 | 3.82 | 23 µM (≈ 11 µg/mL) | 0.7 min |  |  | 61 nM |  | 
4 | COc1ccc(F)c(-c2ccc(COc3ccc4c(c3)[C@]3(CC4)C[C@H]3C(=O)O)cc2[C@@H]2CCCC2(C)C)c1 |  |  |  |  |  |  |  | Efficacy [7]: -25%; Activity [8]: Active; Efficacy [9]: -25%
5 | COC(CNc1nc(N)nc(COc2cc(C)cc(N3CCCC3=O)c2)n1)c1cccc(Cl)c1 (stereo not given) | 3.52 | 36 µM (≈ 17.4 µg/mL) | 2 min | 32% | 12 nM | 15 nM |  | 
6 | Cc1cc(OCc2nc(N)nc(NCCc3cccc(Cl)c3)n2)cc(N2CCCC2=O)c1 | 3.77 | 11 µM (≈ 4.98 µg/mL) | 2.3 min |  | 6 nM | 3 nM | 43% | 
7 | Cc1ccc(Nc2nc(N)nc(COc3ccc4ccc(=O)oc4c3)n2)cc1 |  |  |  |  | 4390 nM | 1280 nM | 49% | 
8 | Cc1cc(OCc2nc(N)nc(NCCc3ccccc3C)n2)cc(N2CCCC2=O)c1 |  |  |  | 35% | 17 nM | 11 nM |  | 
9 | Cc1cc(OCc2nc(N)nc(NCCC3CCCCC3(F)F)n2)cc(N2CCCC2=O)c1 (stereo not given) | 3.53 | 55 µM (≈ 25.3 µg/mL) | 0.8 min |  |  |  |  | 
10 | Cc1cc(OCc2nc(N)nc(NCCc3cccc(F)c3)n2)cc(N2CCCC2=O)c1 | 3.32 | 84 µM (≈ 36.7 µg/mL) | 1.1 min | 35% | 29 nM | 50 nM |  | 
11 | Cc1cc(OCc2nc(N)nc(NCCc3cc(Cl)ccc3Cl)n2)cc(N2CCCC2=O)c1 | 3.46 | 19 µM (≈ 9.26 µg/mL) | 1.9 min | 30% | 2 nM | 1 nM |  | Efficacy [10]: 35%; Activity (COS-7 [11]): inactive; fold change (FC) [12]: 2; fold change (FC) [13]: 10; Activity (COS-7 [14]): inactive; Activity (COS-7 [15]): inactive; Activity (COS-7 [16]): inactive; Activity (COS-7 [17]): inactive
12 | Cc1cc(OCc2nc(N)nc(NCC(C)c3cccc(Cl)c3)n2)cc(N2CCCC2=O)c1 (stereo not given) | 3.93 | 14 µM (≈ 6.54 µg/mL) | 0.8 min | 33% | 10 nM | 6 nM |  | 
13 | Cc1cc(OCc2nc(N)nc(NCCc3cc(C)ccc3F)n2)cc(N2CCCC2=O)c1 |  |  |  |  | 386 nM | 3 nM | 40% | 
14 | Cc1ccc(Nc2nc(N)nc(COc3cc(Cl)cc(N4CCCC4=O)c3)n2)cc1Cl |  |  |  |  | 150 nM | 160 nM | 43% | 
15 | Cc1ccc(Nc2nc(N)nc(COc3cc(N4CCCC4=O)ccc3C)n2)cc1Cl |  |  |  |  | 18200 nM | 7450 nM | 43% | 
16 | Cc1c(Cl)cc(Nc2nc(N)nc(COc3ccc4c(C)cc(=O)oc4c3)n2)cc1Cl |  |  |  |  | 1270 nM | 600 nM | 68% | 
17 | Cc1ccc(Nc2nc(N)nc(COc3cccc(N4CCCC4=O)c3)n2)cc1Cl |  | 28 µM (≈ 11.9 µg/mL) |  |  | 590 nM | 820 nM | 50% | 
18 | Cc1cc(OCc2nc(N)nc(NCC(c3cccc(Cl)c3)N3CCCC3)n2)cc(N2CCCC2=O)c1 (stereo not given) | 2.79 | 294 µM (≈ 153 µg/mL) | 3 min |  |  | 610 nM |  | 
19 | Cc1ccc(Nc2nc(N)nc(COc3ccc4c(C)cc(=O)oc4c3)n2)cc1Cl |  | < 2 µM |  |  | 150 nM | 140 nM | 45% | 
20 | Cc1cc(OCc2nc(N)nc(NCCc3cc(Cl)cc(Cl)c3)n2)cc(N2CCCC2=O)c1 |  |  |  |  | 7 nM | 4 nM | 49% | 
21 | Cc1cc(OCc2nc(N)nc(NCCc3ccc(Cl)c(C)c3)n2)cc(N2CCCC2=O)c1 |  |  |  | 30% | 4 nM | 14 nM |  | 
22 | Cc1cc(OCc2nc(N)nc(NCCc3c(C)cccc3C)n2)cc(N2CCCC2=O)c1 |  |  |  |  | 72 nM | 25 nM | 44% | 
23 | Cc1cc(OCCCS(C)(=O)=O)cc(C)c1-c1cccc(COc2ccc3c(c2)OC[C@H]3CC(=O)O)c1 |  |  |  |  |  |  |  | fold change (FC) [12]: 500
24 | Cc1cc(OCc2nc(N)nc(NCCc3ccc(Cl)c(Cl)c3)n2)cc(N2CCCC2=O)c1 |  |  |  | 23% | 55 nM | 16 nM |  | 
25 | Cc1cc(OCc2nc(N)nc(NCCc3cccc(OC(F)F)c3)n2)cc(N2CCCC2=O)c1 |  |  |  | 28% | 10 nM | 5 nM |  | 
26 | Cc1ccc(Nc2nc(N)nc(COc3cc(N4CCCC4=O)ccc3C(F)(F)F)n2)cc1Cl |  |  |  |  | 11900 nM | 20100 nM | 41% | 
